Reference: patent US20020026053A1, “Novel 3-(substituted) -2- indolinones compounds and use thereof as inhibitors of protein kinase activity” (priority 1997, published 2002)

biological target: T1, Met receptor (EGFR/Met chimeric cells, EMR) (Homo sapiens, UniProt P08581); assay: Met Autophosphorylation Assay; type: biochemical
T1 construct: expressed in transfected cells; the other entry of the earlier key: EGFR (P00533, Epidermal growth factor receptor)
Summary of the method: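 Transiently transfected EGFR/Met chimeric (EMR) cells were lysed in HNTG with 1 mM PMSF. Met was captured on plates coated with goat anti-rabbit IgG, then rabbit anti-Met (C-28), using 90 μg lysate/100 μl for 60 min at room temperature. Phosphotyrosine was read by ELISA.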

T1 sequence (P08581 with tags, fused parts or gaps): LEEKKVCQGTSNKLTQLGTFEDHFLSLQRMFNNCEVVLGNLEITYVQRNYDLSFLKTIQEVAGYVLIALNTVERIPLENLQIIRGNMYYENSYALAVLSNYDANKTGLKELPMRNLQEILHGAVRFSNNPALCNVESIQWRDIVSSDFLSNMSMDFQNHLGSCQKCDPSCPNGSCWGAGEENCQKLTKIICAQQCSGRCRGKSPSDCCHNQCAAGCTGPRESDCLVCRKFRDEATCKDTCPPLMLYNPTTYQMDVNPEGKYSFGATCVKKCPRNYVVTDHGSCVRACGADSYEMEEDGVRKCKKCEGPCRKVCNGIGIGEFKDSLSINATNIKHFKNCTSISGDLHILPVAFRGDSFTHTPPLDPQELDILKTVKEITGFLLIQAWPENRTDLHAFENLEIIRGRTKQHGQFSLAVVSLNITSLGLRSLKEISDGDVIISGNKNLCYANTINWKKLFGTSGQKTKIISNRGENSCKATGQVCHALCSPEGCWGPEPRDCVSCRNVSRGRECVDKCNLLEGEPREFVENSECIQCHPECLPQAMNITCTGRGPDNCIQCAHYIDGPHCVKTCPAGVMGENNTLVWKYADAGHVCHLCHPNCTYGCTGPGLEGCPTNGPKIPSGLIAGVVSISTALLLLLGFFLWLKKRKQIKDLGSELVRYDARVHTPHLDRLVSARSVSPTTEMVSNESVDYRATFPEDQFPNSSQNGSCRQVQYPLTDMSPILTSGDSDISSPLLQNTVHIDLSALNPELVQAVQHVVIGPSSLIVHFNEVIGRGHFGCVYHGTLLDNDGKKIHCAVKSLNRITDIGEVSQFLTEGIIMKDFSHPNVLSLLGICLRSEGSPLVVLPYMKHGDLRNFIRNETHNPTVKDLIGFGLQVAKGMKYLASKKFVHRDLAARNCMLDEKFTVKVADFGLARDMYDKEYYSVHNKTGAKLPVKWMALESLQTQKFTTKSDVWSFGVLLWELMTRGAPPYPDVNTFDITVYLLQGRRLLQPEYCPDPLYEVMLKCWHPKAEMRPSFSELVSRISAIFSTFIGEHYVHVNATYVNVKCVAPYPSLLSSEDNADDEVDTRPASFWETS

Row | SMILES | Met Kinase % Inhibition (P.130) [%]
1 | Cc1c(O)ccc(C=C2C(=O)Nc3c(Br)cc(Br)c(C)c32)c1O [10718/H09] | 73.6
2 | Cc1c(Br)cc(Br)c2c1C(=Cc1ccco1)C(=O)N2 [10718/H10] | 19.9
3 | Cc1c(Br)cc(Br)c2c1C(=Cc1ccc([N+](=O)[O-])o1)C(=O)N2 [10718/H11] | 44.9
4 | CCOc1ccc(C=C2C(=O)Nc3c(Br)cc(Br)c(C)c32)cc1OC [10719/H02] | 36.9
5 | Cc1c(Br)cc(Br)c2c1C(=Cc1ccc(O)c(O)c1)C(=O)N2 [10719/H03] | 67.0
6 | COc1ccc(C=C2C(=O)Nc3c(Br)cc(Br)c(C)c32)c(OC)c1 [10719/H04] | 0.7
7 | CCc1c(C)[nH]c(C=C2C(=O)Nc3c(Br)cc(Br)c(C)c32)c1C [10719/H05] | 20.9
8 | COc1cc(OC)c(C=C2C(=O)Nc3c(Br)cc(Br)c(C)c32)c(OC)c1 [10719/H06] | 1.3
9 | CCN(CC)c1ccc(C=C2C(=O)Nc3c(Br)cc(Br)c(C)c32)c(O)c1 [10734/H05] | 51.1
10 | Cc1c(Br)cc(Br)c2c1C(=Cc1ccc([N+](=O)[O-])cc1)C(=O)N2 [10734/H06] | 32.7
11 | Cc1c(Br)cc(Br)c2c1C(=Cc1cc(Br)cc(Br)c1O)C(=O)N2 [10734/H07] | 84.9
12 | Cc1c(Br)cc(Br)c2c1C(=Cc1cccc(F)c1O)C(=O)N2 [10734/H08] | 64.8
13 | Cc1c(Br)cc(Br)c2c1C(=Cc1ccc(O)c(Br)c1)C(=O)N2 [10734/H09] | 78.4
14 | Cc1c(Br)cc(Br)c2c1C(=Cc1ccc(C(C)(C)C)cc1)C(=O)N2 [10734/H10] | 23.5
15 | Cc1c(Br)cc(Br)c2c1C(=Cc1ccc(Br)s1)C(=O)N2 [10734/H11] | 28.7
16 | Cc1ccccc1C=C1C(=O)Nc2c(Br)cc(Br)cc21 [10735/A02] | 26.9
17 | O=C1Nc2c(Br)cc(Br)cc2C1=Cc1ccc(F)c(F)c1 [10735/A03] | 53.0
18 | O=C1Nc2c(Br)cc(Br)cc2C1=Cc1cc(F)cc(F)c1 [10735/A04] | 48.0
19 | O=C1Nc2c(Br)cc(Br)cc2C1=Cc1cccc(C(F)(F)F)c1 [10735/A05] | 46.1
20 | O=C1Nc2c(Br)cc(Br)cc2C1=Cc1cc(C(F)(F)F)cc(C(F)(F)F)c1 [10735/A06] | 58.9
21 | N#Cc1ccccc1C=C1C(=O)Nc2c(Br)cc(Br)cc21 [10735/A07] | 61.9
22 | O=C1Nc2c(Br)cc(Br)cc2C1=Cc1c(F)cccc1F [10735/A08] | 50.8
23 | O=C1Nc2c(Br)cc(Br)cc2C1=Cc1cccc2ccccc12 [10735/A09] | 19.2
24 | O=C1Nc2c(Br)cc(Br)cc2C1=Cc1ccc(Cl)cc1Cl [10735/A10] | 41.4
25 | O=C1Nc2c(Br)cc(Br)cc2C1=Cc1ccc(-c2ccccc2)cc1 [10735/A11] | 24.5
26 | Cc1ccccc1C=C1C(=O)Nc2ccc(I)cc21 [10735/B02] | 72.4

Row | SMILES | Met Kinase % Inhibition (P.130) [%]
27 | O=C1Nc2ccc(I)cc2C1=Cc1ccc(F)c(F)c1 [10735/B03] | 73.3
28 | O=C1Nc2ccc(I)cc2C1=Cc1cc(F)cc(F)c1 [10735/B04] | 79.0
29 | O=C1Nc2ccc(I)cc2C1=Cc1cccc(C(F)(F)F)c1 [10735/B05] | 83.7
30 | O=C1Nc2ccc(I)cc2C1=Cc1cc(C(F)(F)F)cc(C(F)(F)F)c1 [10735/B06] | 82.7
31 | N#Cc1ccccc1C=C1C(=O)Nc2ccc(I)cc21 [10735/B07] | 56.0
32 | O=C1Nc2ccc(I)cc2C1=Cc1c(F)cccc1F [10735/B08] | 53.4
33 | O=C1Nc2ccc(I)cc2C1=Cc1cccc2ccccc12 [10735/B09] | 46.8
34 | O=C1Nc2ccc(I)cc2C1=Cc1ccc(Cl)cc1Cl [10735/B10] | 73.3
35 | O=C1Nc2ccc(I)cc2C1=Cc1ccc(-c2ccccc2)cc1 [10735/B11] | 69.0
36 | Cc1ccccc1C=C1C(=O)Nc2ccc(Br)c(C)c21 [10735/C02] | 27.7
37 | Cc1c(Br)ccc2c1C(=Cc1ccc(F)c(F)c1)C(=O)N2 [10735/C03] | 66.2
38 | Cc1c(Br)ccc2c1C(=Cc1cc(F)cc(F)c1)C(=O)N2 [10735/C04] | 75.8
39 | Cc1c(Br)ccc2c1C(=Cc1cccc(C(F)(F)F)c1)C(=O)N2 [10735/C05] | 59.4
40 | Cc1c(Br)ccc2c1C(=Cc1cc(C(F)(F)F)cc(C(F)(F)F)c1)C(=O)N2 [10735/C06] | 47.0
41 | Cc1c(Br)ccc2c1C(=Cc1ccccc1C#N)C(=O)N2 [10735/C07] | 49.1
42 | Cc1c(Br)ccc2c1C(=Cc1c(F)cccc1F)C(=O)N2 [10735/C08] | 49.8
43 | Cc1c(Br)ccc2c1C(=Cc1cccc3ccccc13)C(=O)N2 [10735/C09] | 24.1
44 | Cc1c(Br)ccc2c1C(=Cc1ccc(Cl)cc1Cl)C(=O)N2 [10735/C10] | 37.8
45 | Cc1c(Br)ccc2c1C(=Cc1ccc(-c3ccccc3)cc1)C(=O)N2 [10735/C11] | 14.1
46 | CNS(=O)(=O)c1ccc2c(c1)C(=Cc1ccccc1C)C(=O)N2 [10735/D02] | 32.6
47 | CNS(=O)(=O)c1ccc2c(c1)C(=Cc1ccc(F)c(F)c1)C(=O)N2 [10735/D03] | 41.2
48 | CNS(=O)(=O)c1ccc2c(c1)C(=Cc1cc(F)cc(F)c1)C(=O)N2 [10735/D04] | 25.6
49 | CNS(=O)(=O)c1ccc2c(c1)C(=Cc1cccc(C(F)(F)F)c1)C(=O)N2 [10735/D05] | 33.7
50 | CNS(=O)(=O)c1ccc2c(c1)C(=Cc1cc(C(F)(F)F)cc(C(F)(F)F)c1)C(=O)N2 [10735/D06] | 36.9
51 | CNS(=O)(=O)c1ccc2c(c1)C(=Cc1ccccc1C#N)C(=O)N2 [10735/D07] | 33.7
52 | CNS(=O)(=O)c1ccc2c(c1)C(=Cc1c(F)cccc1F)C(=O)N2 [10735/D08] | 25.6

Row | SMILES | Met Kinase % Inhibition (P.130) [%]
53 | CNS(=O)(=O)c1ccc2c(c1)C(=Cc1cccc3ccccc13)C(=O)N2 [10735/D09] | 23.0
54 | CNS(=O)(=O)c1ccc2c(c1)C(=Cc1ccc(Cl)cc1Cl)C(=O)N2 [10735/D10] | 35.0
55 | CNS(=O)(=O)c1ccc2c(c1)C(=Cc1ccc(-c3ccccc3)cc1)C(=O)N2 [10735/D11] | 18.5
56 | Cc1ccccc1C=C1C(=O)Nc2ccc(S(=O)(=O)Nc3ccc(C(F)(F)F)cc3)cc21 [10735/E02] | 13.2
57 | O=C1Nc2ccc(S(=O)(=O)Nc3ccc(C(F)(F)F)cc3)cc2C1=Cc1ccc(F)c(F)c1 [10735/E03] | 71.8
58 | O=C1Nc2ccc(S(=O)(=O)Nc3ccc(C(F)(F)F)cc3)cc2C1=Cc1cc(F)cc(F)c1 [10735/E04] | 85.2
59 | O=C1Nc2ccc(S(=O)(=O)Nc3ccc(C(F)(F)F)cc3)cc2C1=Cc1cccc(C(F)(F)F)c1 [10735/E05] | 74.8
60 | O=C1Nc2ccc(S(=O)(=O)Nc3ccc(C(F)(F)F)cc3)cc2C1=Cc1cc(C(F)(F)F)cc(C(F)(F)F)c1 [10735/E06] | 33.3
61 | N#Cc1ccccc1C=C1C(=O)Nc2ccc(S(=O)(=O)Nc3ccc(C(F)(F)F)cc3)cc21 [10735/E07] | 64.5
62 | O=C1Nc2ccc(S(=O)(=O)Nc3ccc(C(F)(F)F)cc3)cc2C1=Cc1c(F)cccc1F [10735/E08] | 35.7
63 | O=C1Nc2ccc(S(=O)(=O)Nc3ccc(C(F)(F)F)cc3)cc2C1=Cc1cccc2ccccc12 [10735/E09] | 11.3
64 | O=C1Nc2ccc(S(=O)(=O)Nc3ccc(C(F)(F)F)cc3)cc2C1=Cc1ccc(Cl)cc1Cl [10735/E10] | 41.8
65 | O=C1Nc2ccc(S(=O)(=O)Nc3ccc(C(F)(F)F)cc3)cc2C1=Cc1ccc(-c2ccccc2)cc1 [10735/E11] | 7.2
66 | Cc1ccccc1C=C1C(=O)Nc2ccc(S(=O)(=O)N3CCOCC3)cc21 [10735/F02] | 31.2
67 | O=C1Nc2ccc(S(=O)(=O)N3CCOCC3)cc2C1=Cc1ccc(F)c(F)c1 [10735/F03] | 36.1
68 | O=C1Nc2ccc(S(=O)(=O)N3CCOCC3)cc2C1=Cc1cc(F)cc(F)c1 [10735/F04] | 41.6
69 | O=C1Nc2ccc(S(=O)(=O)N3CCOCC3)cc2C1=Cc1cccc(C(F)(F)F)c1 [10735/F05] | 26.4
70 | O=C1Nc2ccc(S(=O)(=O)N3CCOCC3)cc2C1=Cc1cc(C(F)(F)F)cc(C(F)(F)F)c1 [10735/F06] | 39.5
71 | N#Cc1ccccc1C=C1C(=O)Nc2ccc(S(=O)(=O)N3CCOCC3)cc21 [10735/F07] | 39.7
72 | O=C1Nc2ccc(S(=O)(=O)N3CCOCC3)cc2C1=Cc1c(F)cccc1F [10735/F08] | 18.5
73 | O=C1Nc2ccc(S(=O)(=O)N3CCOCC3)cc2C1=Cc1cccc2ccccc12 [10735/F09] | 7.0
74 | O=C1Nc2ccc(S(=O)(=O)N3CCOCC3)cc2C1=Cc1ccc(Cl)cc1Cl [10735/F10] | 13.0
75 | O=C1Nc2ccc(S(=O)(=O)N3CCOCC3)cc2C1=Cc1ccc(-c2ccccc2)cc1 [10735/F11] | 16.6
76 | Cc1ccccc1C=C1C(=O)Nc2ccc(CCCl)cc21 [10735/G02] | 26.0
77 | O=C1Nc2ccc(CCCl)cc2C1=Cc1ccc(F)c(F)c1 [10735/G03] | 24.3
78 | O=C1Nc2ccc(CCCl)cc2C1=Cc1cc(F)cc(F)c1 [10735/G04] | 28.8
